Source: patent US20080234232A1, “Methods and compositions for targeting AFAP” (priority 2007, published 2008)

Experiments:
PH1 domain of AFAP-110 [1] = molecular target: T1, PH1 domain of AFAP-110 (Gallus gallus, UniProt Q90738); test: Lipid binding assay (Far Western), GST-PH1; details: 0.5 μg/ml fusion protein, lipids spotted on membrane
T1 construct: AFAP-110 contains two PH domains, one amino terminal (PH1) and the other carboxy terminal (PH2); made in house; host or cells: bacteria
Experimental: (§1) FIG. 5: The phospholipid binding properties of the PH domains of AFAP-110. A) Pleckstrin homology fusion proteins, GST-PH1, GST-PH2 and GST-DAPP1, were purified from bacteria by affinity chromatography. Phospholipids were spotted onto PVDF membranes as described in the methods section. The membranes were incubated overnight with 0.5 μg/ml • GST-PH1, GST-PH2 or GST-DAPP1. Washed membranes were incubated with anti-GST antibody and exposed to film.
B) Pleckstrin homology fusion protein, GST-PH1, was purified from bacteria by affinity chromatography. Two-fold changes in concentration (1.6 pg-100.0 pg) of phospholipids were spotted onto PVDF membranes as described in the methods section. The PIP arrays were incubated with 0.5 μg/ml fusion protein and probed with anti-GST antibody.
Pleckstrin homology (PH) fusion proteins GST-PH1, GST-PH2 and GST-DAPP1, were purified from bacteria by affinity chromatography. A Far Western Blot procedure was used for detecting the fusion protein binding to nitrocellulose immobilized phospholipids (Stevenson, J. Met. al., 1998); PIP strips and PIP arrays were purchased from Echelon, Inc. Overlay assays measured the relative amounts of GST-tagged fusion protein bound to spotted phospholipids. A plasmid encoding GST-DAPP1 previously shown to bind Ptdlns-3,4-P2 and Ptdlns-3,4,5-P3 (Dowler, S. et. al., 1999) was used as a control, kindly provided by Mark Lemmon (Lemmon, M. A., 2003). The membranes were wetted with methanol and then transferred to blocking solution composed of 3% BSA in TBS containing 1% Tween-20 (TBS-T) for 1 hour at 4° C. Membranes were incubated with 0.5 μg/ml each fusion proteins in TBS-T overnight at 4° C. Following incubation, membranes were rinsed three times with TBS-T, washed for 5 minutes and incubated at 4° C. for 1 hour with anti-GST antibody (1:20000 in TBS-T). Following the standard wash procedure, membranes were incubated at 4° C. for 30 minutes with peroxidase-conjugated secondary antibody (1:30000 in TBS-T). The washed membranes were incubated with chemiluminescence reagent and exposed to X-ray film.

PH domain of DAPP1 = molecular target: T2, PH domain of DAPP1 (Homo sapiens, UniProt Q9UN19); test: Lipid binding assay (Far Western), GST-DAPP1; details: 0.5 μg/ml fusion protein
T2 construct: GST-fusion proteins that expressed the PH domain of DAPP1 as a positive control; made in house; host or cells: bacteria (plasmid provided by Mark Lemmon)
T2 sequence (Q9UN19 164-259 limits assumed): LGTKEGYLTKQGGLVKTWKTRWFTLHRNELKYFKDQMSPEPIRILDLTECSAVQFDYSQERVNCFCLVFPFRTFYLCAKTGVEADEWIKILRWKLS
Experimental: as §1
C) Fusion protein, GST-DAPP1, was purified from bacteria by affinity chromatography. Two-fold changes in concentration (1.6 pg-100.0 pg) of phospholipids were spotted onto PVDF membranes as described in the methods section. Membranes were incubated with 0.5 μg/ml fusion proteins. Washed membranes were probed using with anti-GST antibody.
Pleckstrin homology (PH) fusion proteins GST-PH1, GST-PH2 and GST-DAPP1, were purified from bacteria by affinity chromatography. A Far Western Blot procedure was used for detecting the fusion protein binding to nitrocellulose immobilized phospholipids (Stevenson, J. Met. al., 1998); PIP strips and PIP arrays were purchased from Echelon, Inc. Overlay assays measured the relative amounts of GST-tagged fusion protein bound to spotted phospholipids. […]

PH1 domain of AFAP-110 [2] = molecular target: T1, PH1 domain of AFAP-110; test: Lipid sedimentation assay, GST-PH1; assay type: binding; details: PC vesicles with lipid 19:1 (PC:PS 7:3), 0.025 mM GST fusion protein
Experimental: E) Lipid sedimentation assay was performed using pleckstrin homology fusion protein GST-PH1 as described in the methods sections. The GST-PH1 fusion protein has the capacity to co-sediment with several lipids containing vesicles as indicated in the pellet (P). Soluble fractions (S) containing unbound GST-PH1 purified fusion proteins were resolved by SDS-PAGE and detected by Coomassie stain.
A sedimentation assay was used to detect PH domain protein association with membrane phospholipids. Phospholipid stock solutions: 1 mg/ml L-α-Ptdlns-4-P, 1.0 mg/ml 1,2-dipalmitoyl-sn-glycero-3-Ptdlns-3-P, 0.1 mg/ml 1,2-dioleoyl-sn-glycero-3-Ptdlns-3,4-P2, and 1 mg/ml L-α-Ptdlns-4,5-P2 in chloroform:methanol:water (60:30:4). However, 10 mg/ml L-α-phosphatidylinositol, 0.1 mg/ml L-α Ptdlns-3-P, 0.2 mg/ml L-α-Ptdlns-3,4,5-P3, 10 mg/ml L-α-phosphatidylserine, and 10 mg/ml L-α-phosphatidylcholine in chloroform neat. All lipid stocks were purged with dry N2 and stored −20° C. The lipid vesicles were prepared as follows utilizing a sonication method. Briefly, in a heavy walled tube, PC and another stock phospholipid (e.g. Ptdlns, Ptdlns-3-P, Ptdlns-4-P, Ptdlns-3,4-P2, Ptdlns-3,5-P2, Ptdlns-3,4,5-P3, or PC) were combined in a 19:1 molar ratio; PC and PS were combined in a 7:3 molar ratio. Lipids were dried with a stream of N2 and traces of solvent were removed by vacuum and resuspended to 5.2 mM PC in buffer B [10 mM HEPES, pH 7.5, 50 mM KCl, 0.5 mM EGTA, and 1.0 mM MgCl2]. The resulting phospholipid sheets were sonicated to form vesicles. Samples were prepared to contain 1.7 mM vesicle PC and 0.025 mM recombinant GST fusion protein (DAPP1 or PH1) in buffer B. Samples were incubated 60 min and centrifuged with a Beckman Airfuge for 15 min at room temperature. 16% of the supernatant and 100% of the pellet from each sample was used for analysis by Laemmli method of SDS polyacrylamide gel electrophoresis. The gels were stained with SYPRO Orange or Coomassie Blue to visualize the proteins.

T1 sequence (Q90738 153-249 limits assumed): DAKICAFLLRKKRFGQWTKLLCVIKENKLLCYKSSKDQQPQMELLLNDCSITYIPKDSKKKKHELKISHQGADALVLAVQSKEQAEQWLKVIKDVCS

**Q.** “Phosphoinositol-3,4,5-trisphosphate [Ptdlns-3,4,5-P3]” was tested. Which “binding of GST-PH1 to immobilized phospholipid (far western)” value (PH1 domain of AFAP-110 [1]) did it give?
**A.** Its value is “binding the weakest”.

**Q.** What about the “binding of GST-DAPP1 to immobilized phospholipid (far western)” value (PH domain of DAPP1) of the same substance?
**A.** The value was “binds well”.

**Q.** What about the “binding (co-sedimentation) of GST-PH1 to lipid vesicles containing the lipid” value (PH1 domain of AFAP-110 [2]) of the same substance?
**A.** Its value is “low”.
